Our source for the IC50 values is ChEMBL document CHEMBL3046514, “Synthesis of novel cyclobutylphosphonic acids as inhibitors of imidazole glycerol phosphate dehydratase” (Tetrahedron, 1997).

The assay is described as follows: Inhibition of purified Triticum aestivum (wheat) germ imidazole glycerol phosphate dehydratase.

In the case of `O=P(O)(O)[C@@H]1CCC[C@](O)(c2nc[nH]n2)C1` (relative stereo), the IC50 was determined as 0.04 µM. This lies in the double-digit nanomolar range. Molecule `O=P(O)(O)[C@@H]1CCC[C@@](O)(c2nc[nH]n2)C1` (relative stereo) came in with an IC50 of 10 µM.

On to `O=P(O)(O)[C@@H]1CCC[C@](O)(c2nc[nH]n2)C1`, for which 0.018 µM corresponded to half-maximal inhibition (IC50). `O[C@@]1(c2nc[nH]n2)CCC[C@H](P(O)(O)=P)C1` returned an IC50 of 1.8 µM. In turn, `O=P(O)(O)[C@H]1C[C@@](O)(c2nc[nH]n2)C1` gave an IC50 of 270 µM.

A word on the IC50: it is the concentration that gives 50% inhibition. The low end stands for greater potency in that assay, the high end for weaker potency in that assay.
